≈ marks a conversion by molar mass, not a printed value.

The test system of this assay is A204. The experiment in a line: Cytotoxicity against human A204 cells after 24 hrs by soft agar colony forming assay. Conditions: A204, 24 h. Format: functional, cell-based.
`C[C@@H]1C/C(=C\CO)C(=O)O[C@@H]2CCN(C)C/C=C(/COC(=O)[C@]1(C)O)C2=O` [ANONAMINE]: inhibition was half-maximal at 153 µg/mL (≈ 401 µM) (IC50).

On to `C/C=C1/C[C@@H](C)[C@](O)(CO)C(=O)OC/C2=C/CN(C)CC[C@@H](OC1=O)C2=O` [HYDROXYSENKIRKINE], for which the half-inhibitory concentration (IC50) (in general, the concentration that inhibits the measured activity by half) is 360 µg/mL (≈ 944 µM).

The compound `C/C=C1\C[C@@H](C)[C@@](C)(O)C(=O)OCC2=CCN3CC[C@@H](OC1=O)[C@@H]23` [INTEGERRIMINE] had an IC50 of 120 µg/mL (≈ 358 µM).

Take `C[C@H]1C(=O)O[C@@H]2CCN3CC=C(COC(=O)[C@](C)(O)[C@]1(C)O)[C@H]23` [MONOCROTALINE]: the IC50 was 316 µg/mL (≈ 971 µM).

On to `C/C=C1/C[C@@H](C)[C@@](C)(O)C(=O)OC/C2=C/CN(C)CC[C@@H](OC1=O)C2=O` [NEOSENKIRKINE], for which inhibition was half-maximal at 221 µg/mL (≈ 605 µM) (IC50).

Take `C[C@@H]1C[C@@]2(O[C@H]2C)C(=O)O[C@@H]2CCN(C)C/C=C(/COC(=O)[C@]1(C)O)C2=O` [OTOSENINE]: inhibition was half-maximal at 130 µg/mL (≈ 341 µM) (IC50).

`C/C=C1\C[C@@H](C)[C@](O)(CO)C(=O)OCC2=CCN3CC[C@@H](OC1=O)[C@@H]23` [RETRORSINE] came in with an IC50 of 120 µg/mL (≈ 341 µM).

`C/C=C1/C[C@@H](C)[C@@](C)(O)C(=O)OCC2=CC[N+]3([O-])CC[C@@H](OC1=O)[C@@H]23` (stereo not given in full) [SENECIONINE N-OXIDE] came in with an IC50 of 150 µg/mL (≈ 427 µM).

In turn, `C/C=C1/C[C@@H](C)[C@@](C)(O)C(=O)OCC2=CCN3CC[C@@H](OC1=O)[C@@H]23` [SENECIONINE] had a 50% inhibitory concentration (IC50) of 150 µg/mL (≈ 447 µM).

Regarding `C/C=C1\C[C@@H](C)[C@@](C)(O)C(=O)OC/C2=C/CN(C)CC[C@@H](OC1=O)C2=O` [SENKIRKINE], the concentration for half-maximal inhibition (IC50) was 260 µg/mL (≈ 711 µM).
